In ChEMBL document CHEMBL4130362, “Structure-based design, synthesis, and evaluation of 4,5,6,7-tetrahydro-1H-pyrazolo[4,3-c]pyridine derivatives as novel c-Met inhibitors” (Eur J Med Chem, 2017):

Key:
[1] = biological target: T1, Hepatocyte growth factor receptor (Homo sapiens, UniProt P08581); test: Inhibition of human GST-tagged c-MET preincubated for 20 mins followed by [33P]-ATP addition measured after 2 hrs by Hot-SpotSM kinase assay
EBC-1 [2] = test: Cytotoxicity against human EBC1 cells assessed as decrease in cell viability after 72 hrs by Cell Titer-Glo assay; assay type: functional
MKN-45 = test: Cytotoxicity against human MKN45 cells assessed as decrease in cell viability after 72 hrs by Cell Titer-Glo assay; assay type: functional
PC-3 [3] = test: Cytotoxicity against human PC3 cells assessed as decrease in cell viability after 72 hrs by Cell Titer-Glo assay; assay type: functional
HFL1 = test: Cytotoxicity against human HFL1 cells assessed as decrease in cell viability at 50 uM after 72 hrs by Cell Titer-Glo assay; assay type: cell-based; details: hfl1, 72 h
[4] = biological target: T1, Hepatocyte growth factor receptor; test: Inhibition of human GST-tagged c-MET at 3 uM preincubated for 20 mins followed by [33P]-ATP addition measured after 2 hrs by Hot-SpotSM kinase assay
[5] = biological target: Epidermal growth factor receptor (Homo sapiens) (UniProt P00533); test: Inhibition of human GST-tagged EGFR at 3 uM preincubated for 20 mins followed by [33P]-ATP addition measured after 2 hrs by Hot-SpotSM kinase assay
[6] = biological target: Receptor-type tyrosine-protein kinase FLT3 (Homo sapiens) (UniProt P36888); test: Inhibition of human GST-tagged FLT3 at 3 uM preincubated for 20 mins followed by [33P]-ATP addition measured after 2 hrs by Hot-SpotSM kinase assay
[7] = biological target: Vascular endothelial growth factor receptor 2 (Homo sapiens) (UniProt P35968); test: Inhibition of human GST-tagged VEGFR2 at 3 uM preincubated for 20 mins followed by [33P]-ATP addition measured after 2 hrs by Hot-SpotSM kinase assay
[8] = biological target: Platelet-derived growth factor receptor alpha (Homo sapiens) (UniProt P16234); test: Inhibition of human GST-tagged PDGFRalpha at 3 uM preincubated for 20 mins followed by [33P]-ATP addition measured after 2 hrs by Hot-SpotSM kinase assay
[9] = biological target: Proto-oncogene tyrosine-protein kinase receptor Ret (Homo sapiens) (UniProt P07949); test: Inhibition of human GST-tagged RET at 3 uM preincubated for 20 mins followed by [33P]-ATP addition measured after 2 hrs by Hot-SpotSM kinase assay
[10] = biological target: Macrophage-stimulating protein receptor (Homo sapiens) (UniProt Q04912); test: Inhibition of human GST-tagged RON at 3 uM preincubated for 20 mins followed by [33P]-ATP addition measured after 2 hrs by Hot-SpotSM kinase assay
[11] = biological target: ALK tyrosine kinase receptor (Homo sapiens) (UniProt Q9UM73); test: Inhibition of human GST-tagged ALK at 3 uM preincubated for 20 mins followed by [33P]-ATP addition measured after 2 hrs by Hot-SpotSM kinase assay
[12] = test system: Hepatocyte growth factor receptor (Homo sapiens), P08581 [Y1230C]; test: Inhibition of human GST-tagged c-MET Y1230C mutant at 3 uM preincubated for 20 mins followed by [33P]-ATP addition measured after 2 hrs by Hot-SpotSM kinase assay
[13] = test system: Hepatocyte growth factor receptor (Homo sapiens), P08581 [Y1230H]; test: Inhibition of human GST-tagged c-MET Y1230H mutant at 3 uM preincubated for 20 mins followed by [33P]-ATP addition measured after 2 hrs by Hot-SpotSM kinase assay
[14] = biological target: T2, Receptor-type tyrosine-protein kinase FLT3 (Homo sapiens, UniProt P36888); test: Inhibition of human GST-tagged FLT3 preincubated for 20 mins followed by [33P]-ATP addition measured after 2 hrs by Hot-SpotSM kinase assay
T2 sequence (P36888 whole entry): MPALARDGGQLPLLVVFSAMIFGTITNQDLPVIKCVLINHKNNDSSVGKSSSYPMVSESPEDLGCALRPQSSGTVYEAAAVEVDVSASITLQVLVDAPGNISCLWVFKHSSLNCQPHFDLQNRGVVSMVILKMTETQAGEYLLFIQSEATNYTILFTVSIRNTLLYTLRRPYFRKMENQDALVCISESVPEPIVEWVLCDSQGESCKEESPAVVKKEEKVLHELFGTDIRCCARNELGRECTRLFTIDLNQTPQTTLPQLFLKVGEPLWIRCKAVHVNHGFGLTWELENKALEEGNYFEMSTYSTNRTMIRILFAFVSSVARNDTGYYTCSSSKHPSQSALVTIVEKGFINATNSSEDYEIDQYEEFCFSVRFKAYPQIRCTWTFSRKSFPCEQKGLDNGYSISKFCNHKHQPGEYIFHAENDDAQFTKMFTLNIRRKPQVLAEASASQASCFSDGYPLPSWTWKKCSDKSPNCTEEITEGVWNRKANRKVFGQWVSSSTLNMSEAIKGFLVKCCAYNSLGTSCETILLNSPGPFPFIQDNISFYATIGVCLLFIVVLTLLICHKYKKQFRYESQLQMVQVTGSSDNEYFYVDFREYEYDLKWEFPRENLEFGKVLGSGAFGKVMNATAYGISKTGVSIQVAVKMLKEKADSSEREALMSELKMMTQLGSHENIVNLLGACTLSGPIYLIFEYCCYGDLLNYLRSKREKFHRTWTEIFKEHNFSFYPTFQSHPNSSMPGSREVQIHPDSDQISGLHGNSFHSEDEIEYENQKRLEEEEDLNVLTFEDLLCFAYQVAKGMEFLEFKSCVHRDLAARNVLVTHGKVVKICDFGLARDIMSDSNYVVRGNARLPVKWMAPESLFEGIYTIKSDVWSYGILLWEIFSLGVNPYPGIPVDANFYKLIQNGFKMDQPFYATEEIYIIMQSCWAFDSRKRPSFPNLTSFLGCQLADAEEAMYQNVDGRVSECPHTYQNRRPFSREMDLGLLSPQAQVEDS

[15] = biological target: T1, Hepatocyte growth factor receptor; test: Inhibition of HGF-induced c-MET phosphorylation at Tyr1234/1235 in human MKN45 cells after 1 hr by Western blot analysis; assay type: cell-based
PC-3 [16] = test: Cytotoxicity against human PC3 cells assessed as decrease in cell viability at 25 uM after 72 hrs by Cell Titer-Glo assay relative to control; assay type: functional
EBC-1 [17] = test: Cytotoxicity against human EBC1 cells assessed as decrease in cell viability at 25 uM after 72 hrs by Cell Titer-Glo assay relative to control; assay type: functional

T1 sequence (P08581 whole entry): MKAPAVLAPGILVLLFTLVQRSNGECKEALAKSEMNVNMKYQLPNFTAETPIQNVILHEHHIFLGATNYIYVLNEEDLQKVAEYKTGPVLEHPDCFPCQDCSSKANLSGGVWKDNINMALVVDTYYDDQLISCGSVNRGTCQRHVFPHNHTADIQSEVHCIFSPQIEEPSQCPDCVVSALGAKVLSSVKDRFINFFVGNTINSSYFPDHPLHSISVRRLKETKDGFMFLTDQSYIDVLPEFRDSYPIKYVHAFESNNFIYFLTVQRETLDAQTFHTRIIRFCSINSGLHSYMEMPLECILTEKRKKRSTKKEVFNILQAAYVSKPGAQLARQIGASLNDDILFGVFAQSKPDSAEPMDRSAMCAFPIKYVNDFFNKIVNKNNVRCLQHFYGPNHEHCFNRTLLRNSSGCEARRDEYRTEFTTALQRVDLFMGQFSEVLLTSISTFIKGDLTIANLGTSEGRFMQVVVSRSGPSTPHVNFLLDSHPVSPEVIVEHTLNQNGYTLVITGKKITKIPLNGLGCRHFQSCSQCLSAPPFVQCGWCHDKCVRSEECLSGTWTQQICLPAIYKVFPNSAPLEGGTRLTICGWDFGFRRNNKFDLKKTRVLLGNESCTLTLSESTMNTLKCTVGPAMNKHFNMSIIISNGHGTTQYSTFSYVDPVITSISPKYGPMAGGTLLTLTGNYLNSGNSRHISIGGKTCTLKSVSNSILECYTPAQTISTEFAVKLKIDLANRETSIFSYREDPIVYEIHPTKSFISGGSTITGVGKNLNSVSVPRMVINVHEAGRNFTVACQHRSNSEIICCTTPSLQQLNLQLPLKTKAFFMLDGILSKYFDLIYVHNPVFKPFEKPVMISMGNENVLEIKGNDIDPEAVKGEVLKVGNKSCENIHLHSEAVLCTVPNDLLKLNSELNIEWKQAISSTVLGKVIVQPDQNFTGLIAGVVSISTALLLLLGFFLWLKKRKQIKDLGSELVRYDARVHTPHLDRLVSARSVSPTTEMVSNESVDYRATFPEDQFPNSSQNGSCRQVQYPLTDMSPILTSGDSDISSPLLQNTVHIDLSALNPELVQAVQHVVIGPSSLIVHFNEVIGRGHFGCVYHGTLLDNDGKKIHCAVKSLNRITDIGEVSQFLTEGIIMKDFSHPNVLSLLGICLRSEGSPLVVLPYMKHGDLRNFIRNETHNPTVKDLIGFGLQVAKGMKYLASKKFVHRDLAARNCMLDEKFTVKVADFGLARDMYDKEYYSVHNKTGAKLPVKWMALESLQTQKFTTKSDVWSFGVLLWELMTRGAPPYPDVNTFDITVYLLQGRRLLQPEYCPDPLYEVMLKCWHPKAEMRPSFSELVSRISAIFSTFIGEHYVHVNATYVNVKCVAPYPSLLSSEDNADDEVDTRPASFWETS
Chain of Platelet-derived growth factor receptor alpha (Homo sapiens) (P16234 whole entry): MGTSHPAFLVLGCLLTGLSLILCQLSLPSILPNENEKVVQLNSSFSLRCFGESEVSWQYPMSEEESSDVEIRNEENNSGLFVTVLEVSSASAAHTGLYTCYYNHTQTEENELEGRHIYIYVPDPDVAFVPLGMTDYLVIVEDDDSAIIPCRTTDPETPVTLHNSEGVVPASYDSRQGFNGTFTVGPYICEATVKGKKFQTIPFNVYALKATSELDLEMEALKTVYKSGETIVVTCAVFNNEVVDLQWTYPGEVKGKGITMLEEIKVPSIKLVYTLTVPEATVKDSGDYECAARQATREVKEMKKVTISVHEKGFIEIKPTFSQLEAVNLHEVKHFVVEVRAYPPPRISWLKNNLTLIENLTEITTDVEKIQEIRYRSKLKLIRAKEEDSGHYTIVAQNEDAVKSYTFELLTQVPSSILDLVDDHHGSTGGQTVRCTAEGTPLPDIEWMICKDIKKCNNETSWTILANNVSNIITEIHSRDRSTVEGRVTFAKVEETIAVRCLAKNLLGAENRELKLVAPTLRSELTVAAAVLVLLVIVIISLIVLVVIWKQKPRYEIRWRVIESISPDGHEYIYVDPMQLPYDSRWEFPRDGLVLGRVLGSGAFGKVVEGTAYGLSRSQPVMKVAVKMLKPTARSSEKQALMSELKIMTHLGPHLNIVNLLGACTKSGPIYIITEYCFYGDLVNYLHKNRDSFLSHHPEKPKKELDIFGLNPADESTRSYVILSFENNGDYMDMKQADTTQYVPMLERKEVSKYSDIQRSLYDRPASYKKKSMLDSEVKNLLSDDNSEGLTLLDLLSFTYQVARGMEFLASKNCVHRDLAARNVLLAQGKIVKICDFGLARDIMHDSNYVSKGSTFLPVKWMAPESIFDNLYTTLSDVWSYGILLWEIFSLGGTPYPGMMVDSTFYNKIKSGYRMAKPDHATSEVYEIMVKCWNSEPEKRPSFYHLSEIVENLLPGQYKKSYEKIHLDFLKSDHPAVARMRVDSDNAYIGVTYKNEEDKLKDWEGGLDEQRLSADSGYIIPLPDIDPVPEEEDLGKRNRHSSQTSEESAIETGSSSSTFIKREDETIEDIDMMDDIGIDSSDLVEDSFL
Chain of Vascular endothelial growth factor receptor 2 (Homo sapiens) (P35968 whole entry): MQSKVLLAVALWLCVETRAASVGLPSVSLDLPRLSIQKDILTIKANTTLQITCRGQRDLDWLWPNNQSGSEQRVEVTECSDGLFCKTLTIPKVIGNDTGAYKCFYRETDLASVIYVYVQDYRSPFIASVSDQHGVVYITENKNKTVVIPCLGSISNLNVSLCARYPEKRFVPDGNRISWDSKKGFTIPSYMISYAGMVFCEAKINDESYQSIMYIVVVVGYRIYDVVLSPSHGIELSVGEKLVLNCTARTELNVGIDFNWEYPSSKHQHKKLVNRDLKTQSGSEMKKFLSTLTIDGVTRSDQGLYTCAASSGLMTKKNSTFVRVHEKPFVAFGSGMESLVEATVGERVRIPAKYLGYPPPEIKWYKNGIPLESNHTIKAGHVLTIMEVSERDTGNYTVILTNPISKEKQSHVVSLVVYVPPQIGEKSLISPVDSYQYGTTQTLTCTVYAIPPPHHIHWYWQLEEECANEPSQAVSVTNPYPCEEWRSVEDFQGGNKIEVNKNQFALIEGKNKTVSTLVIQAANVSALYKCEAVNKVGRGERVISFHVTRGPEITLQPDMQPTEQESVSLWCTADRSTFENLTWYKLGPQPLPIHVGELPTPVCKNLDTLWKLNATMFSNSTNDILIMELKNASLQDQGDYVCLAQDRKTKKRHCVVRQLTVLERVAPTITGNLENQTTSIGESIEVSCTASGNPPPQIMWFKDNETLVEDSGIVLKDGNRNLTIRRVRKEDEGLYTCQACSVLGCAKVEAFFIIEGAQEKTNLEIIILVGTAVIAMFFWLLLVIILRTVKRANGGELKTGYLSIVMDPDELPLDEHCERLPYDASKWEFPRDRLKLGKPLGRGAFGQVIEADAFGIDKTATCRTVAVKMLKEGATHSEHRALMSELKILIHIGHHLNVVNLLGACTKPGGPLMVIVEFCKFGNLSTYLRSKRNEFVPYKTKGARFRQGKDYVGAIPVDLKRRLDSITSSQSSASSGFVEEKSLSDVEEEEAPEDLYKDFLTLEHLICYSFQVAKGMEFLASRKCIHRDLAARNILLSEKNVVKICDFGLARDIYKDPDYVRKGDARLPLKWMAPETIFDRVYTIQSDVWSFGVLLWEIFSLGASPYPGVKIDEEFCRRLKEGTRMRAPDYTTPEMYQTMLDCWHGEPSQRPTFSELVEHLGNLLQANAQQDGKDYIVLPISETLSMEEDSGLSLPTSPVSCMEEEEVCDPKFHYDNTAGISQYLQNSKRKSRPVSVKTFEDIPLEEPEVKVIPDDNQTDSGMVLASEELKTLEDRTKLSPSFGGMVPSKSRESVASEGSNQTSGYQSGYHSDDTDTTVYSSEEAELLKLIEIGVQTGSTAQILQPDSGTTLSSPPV
Chain of Epidermal growth factor receptor (Homo sapiens) (P00533 whole entry): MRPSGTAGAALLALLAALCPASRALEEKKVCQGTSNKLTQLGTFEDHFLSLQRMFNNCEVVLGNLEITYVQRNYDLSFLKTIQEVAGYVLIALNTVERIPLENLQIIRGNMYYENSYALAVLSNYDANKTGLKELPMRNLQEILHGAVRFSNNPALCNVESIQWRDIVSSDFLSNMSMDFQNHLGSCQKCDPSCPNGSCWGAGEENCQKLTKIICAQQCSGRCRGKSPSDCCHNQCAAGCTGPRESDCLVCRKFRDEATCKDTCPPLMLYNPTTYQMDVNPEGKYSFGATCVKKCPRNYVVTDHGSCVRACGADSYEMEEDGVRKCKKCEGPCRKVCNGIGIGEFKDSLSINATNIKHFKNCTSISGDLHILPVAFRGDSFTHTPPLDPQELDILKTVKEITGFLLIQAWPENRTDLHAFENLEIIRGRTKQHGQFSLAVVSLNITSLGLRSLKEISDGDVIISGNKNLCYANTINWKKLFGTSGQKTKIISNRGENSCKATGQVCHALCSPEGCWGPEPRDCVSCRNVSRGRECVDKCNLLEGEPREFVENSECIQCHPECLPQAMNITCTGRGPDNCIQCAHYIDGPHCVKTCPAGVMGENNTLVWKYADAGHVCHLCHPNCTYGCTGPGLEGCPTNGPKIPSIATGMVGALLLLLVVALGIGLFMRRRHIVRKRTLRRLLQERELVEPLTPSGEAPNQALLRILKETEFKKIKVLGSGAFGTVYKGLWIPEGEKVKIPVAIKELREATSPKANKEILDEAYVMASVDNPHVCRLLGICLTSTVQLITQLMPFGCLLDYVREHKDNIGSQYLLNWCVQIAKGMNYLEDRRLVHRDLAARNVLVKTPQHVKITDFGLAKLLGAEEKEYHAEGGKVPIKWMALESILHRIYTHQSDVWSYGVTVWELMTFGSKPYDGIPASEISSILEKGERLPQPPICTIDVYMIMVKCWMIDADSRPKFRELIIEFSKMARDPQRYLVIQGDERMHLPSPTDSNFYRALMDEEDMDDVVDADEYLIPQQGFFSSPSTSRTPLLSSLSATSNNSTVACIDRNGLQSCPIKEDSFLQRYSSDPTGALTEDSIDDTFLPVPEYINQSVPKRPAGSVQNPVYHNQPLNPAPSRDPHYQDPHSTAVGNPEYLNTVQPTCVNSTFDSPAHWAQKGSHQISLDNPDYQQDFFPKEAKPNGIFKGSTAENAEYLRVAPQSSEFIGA

IC50 [1] [nM]	Structure (SMILES)	Activity (EBC-1 [2]) [µM]	Activity (MKN-45) [µM]	Activity (PC-3 [3]) [µM]	other results
> 50000	CC(=O)N1CCC(Nc2ccc(-c3n[nH]c4c3CN(S(=O)(=O)c3cccc5ccccc35)CC4)cc2)CC1				
	C[C@@H](Oc1cc(-c2cnn(C3CCNCC3)c2)cnc1N)c1c(Cl)ccc(F)c1Cl [CRIZOTINIB]	0.013	0.022	2.244	Activity (HFL1): 39.4%
	O=C(NCCO)c1ccc(-c2n[nH]c3c2CN(S(=O)(=O)c2c(Cl)cccc2Cl)CC3)cc1	>25	>25	>25	
68	CN1CCC(Nc2ccc(-c3n[nH]c4c3CN(S(=O)(=O)c3c(Cl)cccc3Cl)CC4)cc2)CC1	3.481	1.187		inhibition [4]: 17.6%; inhibition [5]: -5.68%; inhibition [6]: 97.8%; inhibition [7]: 26.9%; inhibition [8]: 41.1%; inhibition [9]: 33.5%; inhibition [10]: 27.4%; inhibition [11]: 55.6%; inhibition [12]: 14.9%; inhibition [13]: 7.16%; IC50 [14]: 124 nM; inhibition [15]: Dose-dependent effect; Activity (PC-3 [16]): 60.89%; Activity (HFL1): 40.6%
> 50000	CC(=O)N1CCC(Nc2ccc(-c3n[nH]c4c3CN(S(=O)(=O)c3ccc(C)cc3)CC4)cc2)CC1				
	CC(=O)N1CCC(Nc2ccc(-c3n[nH]c4c3CN(S(=O)(=O)c3cccs3)CC4)cc2)CC1		>25	>25	Activity (EBC-1 [17]): 57.52%
	CC(=O)N1CCC(Nc2ccc(-c3n[nH]c4c3CN(S(=O)(=O)c3c(Cl)cccc3Cl)CC4)cc2)CC1	11.478	12.02	>25	
	CN1CCN(C(=O)c2ccc(-c3n[nH]c4c3CN(S(=O)(=O)c3c(Cl)cccc3Cl)CC4)cc2)CC1	8.278	12.057		
> 50000	CC(=O)N1CCC(Nc2ccc(-c3n[nH]c4c3CN(S(=O)(=O)c3cccc5cccnc35)CC4)cc2)CC1				
